Experimental data from patent publication US9573913B2, “Cathepsin cysteine protease inhibitors” (Merck Sharp & Dohme Corp., priority 2013, dated 2017).

Columns and labels:
[1] = target: human cathepsin K (UniProt P43236); assay: Cathepsin K Assay (hrbCat K); assay type: biochemical; conditions: Z-Leu-Arg-AMC substrate, pH 5.5, 15 min preincubation; read-out: hrbCat K (IP (nM))
Outline: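 Human cathepsin K (0.4 nM) was preincubated 15 min at room temperature with compound in 50 mM MES pH 5.5, 2.5 mM EDTA, 2.5 mM DTT and 10% DMSO. Inhibition was fitted to a dose-response model.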

[2] = target: T1, human cathepsin F (Homo sapiens, UniProt Q9UBX1); assay: Cathepsin F assay (hCat F); assay type: biochemical; conditions: Z-Phe-Arg-AMC substrate, pH 5.5, 15 min preincubation; read-out: hCat F (IP (nM))
T1 sequence (Q9UBX1 271-484): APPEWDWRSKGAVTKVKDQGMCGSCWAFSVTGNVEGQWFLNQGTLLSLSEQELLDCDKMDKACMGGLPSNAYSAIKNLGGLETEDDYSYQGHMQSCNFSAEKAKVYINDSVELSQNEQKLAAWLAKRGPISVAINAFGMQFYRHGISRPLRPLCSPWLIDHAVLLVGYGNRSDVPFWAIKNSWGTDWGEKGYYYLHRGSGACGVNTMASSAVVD
Outline: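 AMC release from Z-Phe-Arg-AMC, added at 8 μM, was monitored fluorometrically (360/460 nm) for 20 min after 10 nM enzyme and compound had been preincubated 15 min at room temperature. Buffer: MES 50 mM pH 5.5, EDTA and DTT 2.5 mM each, 10% DMSO. Compound DMSO dilutions spanned 500–0.025 μM (3-fold). Dose-response fitting gave % inhibition.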

Row | IC50 [1] [nM] | IC50 [2] [nM] | Compound
1 | 6 | ≥ 10000 | CC(C)(C)c1nc([C@@H]2CC[C@H](F)C[C@H]2C(=O)NC2(C#N)CC2)c(-c2ccc(N3CCS(=N)(=O)CC3)cc2)o1 [Example 13, (1R,2R,5S)-2-(2-(tert-Butyl)-5-(4-(1-imino-1-oxidothiomorpholino)phenyl)oxazol-4-yl)-N-(1-cyanocyclopropyl)-5-fluorocyclohexanecarboxamide]
2 | 5.2 | ≥ 10000 | CN=S1(=O)CCN(c2ccc(-c3oc(C(C)(C)C)nc3[C@@H]3CC[C@H](F)C[C@H]3C(=O)NC3(C#N)CC3)cc2)CC1 [Example 14, (1R,2R,5S)-2-(2-(tert-Butyl)-5-(4-(1-(methylimino)-1-oxidothiomorpholino)phenyl)oxazol-4-yl)-N-(1-cyanocyclopropyl)-5-fluorocyclohexanecarboxamide]
3 | 2.4 | 124 | CC(C)OC(=O)N1CC(c2ccc(-c3sc(-c4ccc(F)cc4)nc3[C@@H]3CCCC[C@H]3C(=O)NC3(C#N)CC3)cc2)C1 [Example 15, Isopropyl 3-(4-(4-((1R,2R)-2-((1-cyanocyclopropyl)carbamoyl)cyclohexyl)-2-(4-fluorophenyl)thiazol-5-yl)phenyl)azetidine-1-carboxylate]
4 | 2.5 | 931 | N#CC1(NC(=O)[C@@H]2CCCC[C@H]2c2nc(Oc3ccccc3)sc2-c2ccc(N3CCS(=O)(=O)CC3)cc2)CC1 [Example 16, (1R,2R)-N-(1-Cyanocyclopropyl)-2-(5-(4-(1,1-dioxidothiomorpholino)phenyl)-2-phenoxythiazol-4-yl)cyclohexanecarboxamide]
5 | 2 | 1140 | Cc1nc([C@@H]2CCCC[C@H]2C(=O)NCC#N)c(-c2ccc(N3CCS(=O)(=O)CC3)cc2)s1 [Example 17, (1R,2R)-N-(cyanomethyl)-2-(5-(4-(1,1-dioxidothiomorpho-lino)phenyl)-2-methylthiazol-4-yl)cyclohexane-carboxamide]
6 | 1.2 | 564 | N#CCNC(=O)[C@@H]1CCCC[C@H]1c1nc(C2CC2)sc1-c1ccc(N2CCS(=O)(=O)CC2)cc1 [Example 18, (1R,2R)-N-(cyanomethyl)-2-(2-cyclopropyl-5-(4-(1,1-dioxidothiomorpho-lino)phenyl)thiazol-4-yl)cyclohexane-carboxamide]
7 | 0.7 | 851 | CC(C)(C)c1nc([C@@H]2CCCC[C@H]2C(=O)NCC#N)c(-c2ccc(N3CCS(=O)(=O)CC3)cc2)s1 [Example 19, (1R,2R)-2-(2-(tert-butyl)-5-(4-(1,1-dioxidothiomorpho-lino)phenyl)thiazol-4-yl)-N-(cyanomethyl)cyclo-hexanecarboxamide]
8 | 2.7 | 8630 | CC(C)(C)c1nc([C@@H]2CCCC[C@H]2C(=O)NC2(C#N)CC2)c(-c2ccc(N3CCS(=O)(=O)CC3)cc2)s1 [Example 20, (1R,2R)-2-(2-(tert-butyl)-5-(4-(1,1-dioxidothiomorpho-lino)phenyl)thiazol-4-yl)-N-(1-cyanocyclopropyl) cyclohexanecarbox-amide]
9 | 1.6 | 314 | N#CC1(NC(=O)[C@@H]2CC(F)(F)CC[C@H]2c2nc(CC(F)(F)F)sc2-c2ccc(N3CCS(=O)(=O)CC3)cc2)CC1 [Example 21, (1R,2R)-N-(1-cyanocyclopropyl)-2-(5-(4-(1,1-dioxidothiomorpho-lino)phenyl)-2-(2,2,2-trifluoroethyl)thia-zol-4-yl)-5,5-difluorocyclohexane-carboxamide]
10 | 6.6 | 8520 | N#CC1(NC(=O)[C@@H]2CCCC[C@H]2c2nc(CC(F)(F)F)sc2-c2ccc(N3CCS(=O)(=O)CC3)cc2)CC1 [Example 22, (1R,2R)-N-(1-cyanocyclopropyl)-2-(5-(4-(1,1-dioxidothiomorpho-lino)phenyl)-2-(2,2,2-trifluoroethyl)thia-zol-4-yl)cyclohexane-carboxamide]
11 | 1.1 | 223 | N#CC1(NC(=O)[C@@H]2CC(F)(F)CC[C@H]2c2nc(CCC(F)(F)F)sc2-c2ccc(N3CCS(=O)(=O)CC3)cc2)CC1 [Example 23, (1R,2R)-N-(1-cyanocyclopropyl)-2-(5-(4-(1,1-dioxidothiomorpho-lino)phenyl)-2-(3,3,3-trifluoropropyl)thia-zol-4-yl)-5,5-difluorocyclohexane-carboxamide]

Further lines, the molecule ahead of its results:

Row | Compound | IC50 [1] [nM] | IC50 [2] [nM]
12 | N#CC1(NC(=O)[C@@H]2CCCC[C@H]2c2nc(-c3ccc(F)cc3)sc2-c2ccc(N3CCS(=N)(=O)CC3)cc2)CC1 [Compound 5, (1R,2R)-N-(1-Cyanocyclopropyl)-2-(2-(4-fluorophenyl)-5-(4-(1-imino-1-oxidothiomorpholino)phenyl)thiazol-4-yl)cyclohexanecarboxamide] | 1.9 | 3330
13 | N#CC1(NC(=O)[C@@H]2CCCC[C@H]2c2nc(N3CCC(F)(F)CC3)sc2-c2ccc(N3CCS(=O)(=O)CC3)cc2)CC1 [Compound 6, (1R,2R)-N-(1-cyanocyclopropyl)-2-(2-(4,4-difluoropiperidin-1-yl)-5-(4-(1,1-dioxidothiomorpholino)phenyl)thiazol-4-yl)cyclohexanecarboxamide] | 3.6 | 1000
14 | N#CC1(NC(=O)[C@@H]2C[C@@H](F)CC[C@H]2c2nc(-c3cncc(F)c3)sc2-c2ccc(N3CCS(=O)(=O)CC3)cc2)CC1 [Compound 7, (1R,2R,5S)-N-(1-cyanocyclopropyl)-2-(5-(4-(1,1-dioxidothiomorpholino)phenyl)-2-(5-fluoropyridin-3-yl)thiazol-4-yl)-5-fluorocyclohexanecarboxamide] | 0.9 | 1920
15 | C[C@@H](C#N)NC(=O)[C@@H]1C[C@@H](F)CC[C@H]1c1nc(-c2ccc(F)cn2)sc1-c1ccc(N2CCS(=O)(=O)CC2)cc1 [Compound 8, (1R,2R,5S)-N—((S)-1-Cyanoethyl)-2-(5-(4-(1,1-dioxidothiomorpholino)phenyl)-2-(5-fluoropyridin-2-yl)thiazol-4-yl)-5-fluorocyclohexanecarboxamide] | 1.3 | 1100
16 | Cc1nc([C@@H]2CC[C@H](F)C[C@H]2C(=O)NC2(C#N)CC2)c(-c2ccc(N3CCOCC3)cc2)s1 [Compound 9, (1R,2R,5S)-N-(1-cyanocyclopropyl)-5-fluoro-2-(2-methyl-5-(4-morpholinophenyl)thiazol-4-yl)cyclohexanecarboxamide] | 44.1 | ≥ 10000
17 | N#CC1(NC(=O)[C@@H]2CCCC[C@H]2c2nc(-c3ccc(F)cc3)oc2-c2ccc(N3CCS(=O)(=O)CC3)cc2)CC1 [Example 10, (1R,2R)-N-(1-cyanocyclopropyl)-2-(5-(4-(1,1-dioxidothiomorpholino)phenyl)-2-(4-fluorophenyl)oxazol-4-yl)cyclohexanecarboxamide] | 2.5 | 1110
18 | N#CC1(NC(=O)[C@@H]2CCCC[C@H]2c2nc(C3CCOCC3)sc2-c2ccc(N3CCS(=O)(=O)CC3)cc2)CC1 [Example 11, (1R,2R)-N-(1-Cyanocyclopropyl)-2-(5-(4-(1,1-dioxidothiomorpholino)phenyl)-2-(tetrahydro-2H-pyran-4-yl)thiazol-4-yl)cyclohexanecarboxamide] | 3 | ≥ 10000
19 | Cc1nc([C@@H]2CCCC[C@H]2C(=O)NCC#N)c(-c2ccc(C(=O)N3CCOCC3)cc2)s1 [Example 12, (1R,2R)-N-(cyanomethyl)-2-(2-methyl-5-(4-(morpholine-4-carbonyl)phenyl)thiazol-4-yl)cyclohexanecarboxamide] | 17 | 5170
